Laboratory results taken from paper PMC5607274, “An iterative compound screening contest method for identifying target protein inhibitors using the tyrosine-protein kinase Yes” (Scientific Reports, 2017).

Target: T1, human recombinant Yes [a.a. 2–543 (end)] (Homo sapiens, UniProt P07947)
T1 construct: human recombinant Yes [a.a; 2–543 (end)]; purchased BPS Bioscience 40488
Assay: ADP-Glo kinase assay, inhibition rates of Yes phosphorylation activity (first and second screening)
Assay type: biochemical
Details: first screening; mean of n = 4 wells; 10 μmol L−1 compound
Summary of the method: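 ADP-Glo luminescence measured inhibition of human recombinant Yes (a.a. 2–543) phosphorylation activity. In the first screen, each compound ran in 4 wells and inhibition rates were averaged. The second screen retested hits as compounds dissolved from fresh powder.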

T1 sequence (P07947 2-543): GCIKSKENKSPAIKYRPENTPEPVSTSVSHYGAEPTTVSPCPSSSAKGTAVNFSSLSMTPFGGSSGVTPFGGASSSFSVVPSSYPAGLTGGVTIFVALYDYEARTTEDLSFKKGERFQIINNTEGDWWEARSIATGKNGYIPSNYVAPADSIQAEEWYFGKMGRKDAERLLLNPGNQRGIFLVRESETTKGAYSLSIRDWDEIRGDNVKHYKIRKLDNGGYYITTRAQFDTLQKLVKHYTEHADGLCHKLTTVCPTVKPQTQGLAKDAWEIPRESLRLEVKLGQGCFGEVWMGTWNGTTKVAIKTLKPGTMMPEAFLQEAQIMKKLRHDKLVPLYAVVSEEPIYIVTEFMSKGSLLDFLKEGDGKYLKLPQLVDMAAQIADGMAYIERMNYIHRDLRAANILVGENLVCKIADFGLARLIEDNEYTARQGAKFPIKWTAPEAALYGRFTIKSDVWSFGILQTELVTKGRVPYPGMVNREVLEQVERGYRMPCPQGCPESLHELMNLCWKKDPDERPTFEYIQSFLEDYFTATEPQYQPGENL

Structure (SMILES) | First screening IR (inhibition rate) [%]
CCn1ncc2c(C(=O)Nc3ncc(C)s3)cc(-c3ccccc3)nc21 [Compound Z224316064] | 10
N#CC(C(=O)NCc1ccc2c(c1)OCO2)c1nc2ccccc2nc1N1CCN(Cc2ccccc2)CC1 (stereo not drawn) [Compound Z56854297] | -7
Cl.Clc1ccc(-c2cc(-c3ccccc3Cl)c3cc(Cl)ccc3n2)cc1 [Compound Z48951731] | -3
Cc1c(-c2ccccc2)nc2ccc(Cl)cc2c1-c1ccccc1Cl.Cl [Compound Z48951725] | -2
O=C(CSc1nnc(-c2ccccc2F)n1CCc1ccccc1)c1ccc[nH]1 [Compound Z16427126] | -9
N#C/C(=C(/O)CN1CCN(S(=O)(=O)c2ccccc2C#N)CC1)c1nc2ccccc2[nH]1 [Compound Z48805202] | -4
COc1cc(/C=N/Nc2ncnc3scc(-c4ccccc4)c23)ccc1O [Compound Z49889617] | 13
Cc1sc2nc(CSc3ccccc3)nc(N3CCCC3C(N)=O)c2c1C (stereo not drawn) [Compound Z31132453] | 9
Cc1ccccc1-c1cc(C(=O)O)c2cnn(C(C)C)c2n1 [Compound Z56643722] | 8
CN1C/C(=C/c2cccc(Br)c2)c2nc3ccccc3c(C(=O)O)c2C1 [Compound Z46114695] | -9
CCOc1ccc(-n2cc(-c3ccccc3)c3c(NCCO)ncnc32)cc1 [Compound Z57456164] | 20
COc1ccc(/C=C2/CCCc3c2nc2ccccc2c3C(=O)OCC(=O)Nc2sc3c(c2C(=O)Nc2ccc(Cl)cc2)CCCC3)cc1 [Compound Z19394488] | 7
O=C(NCC1(N2CCCCC2)CCCCC1)c1ccc(S(=O)(=O)NC2CC2)cc1 [Compound Z87649109] | -3
Brc1ccc(-c2cc(-c3ccccc3)c3ccccc3n2)cc1.Cl [Compound Z48951036] | 5
O=c1c2cccc3c2c(nn1-c1ccccc1)-c1ccccc1-3 [Compound Z57229152] | 18
CCn1ncc2c(C(=O)N(C)C)cc(-c3cccs3)nc21 [Compound Z254580980] | -9
CCOC(=O)c1cc(-c2ccc3c(c2)OCCO3)nc2c1c(C)nn2CCC#N [Compound Z56631515] | 17
c1ccc(-c2nc(Sc3n[nH]c(-c4ccncc4)n3)nc3ccccc23)cc1 [Compound Z271700602] | -1
C=CCn1c(COc2ccccc2F)nnc1SCCCn1c(=O)[nH]c2ccccc21 [Compound Z24188026] | -6
Cc1nn(CCc2nc(-c3ccco3)cs2)c2nc(-c3cccs3)cc(C(F)(F)F)c12 [Compound Z55404718] | 38
COc1cc(/C=C/C(=O)c2ccc3c(c2)NC(=O)CO3)ccc1O [Compound Z114950222] | 1
O=C(NCC1COc2ccccc2O1)c1cccc(OCc2cn3ccccc3n2)c1 (stereo not drawn) [Compound Z185334464] | -12
CC(C(=O)NC(c1ccccc1)c1ccccc1)N1CCN(c2ncnc3c2cnn3C)CC1 (stereo not drawn) [Compound Z238831180] | 64
Cc1cc(COC(=O)c2cc(-c3cccs3)nc3c2cnn3C(C)C)no1 [Compound Z215601214] | -2
O=C(Nc1ccc2[nH]c(=O)[nH]c2c1)c1cc2c(s1)-c1ccccc1CC2 [Compound Z26792816] | 4
Cc1cccn2c(NC(=O)c3cccc(S(=O)(=O)NC(C)C)c3)c(-c3ccccc3)nc12 [Compound Z225376048] | 0
Cc1c(-c2ccccc2)nc2ccc(Cl)cc2c1-c1ccccc1.Cl [Compound Z48950813] | 20
COC(=O)c1c(Nc2nc3ccccc3nc2N2CCN(C/C=C/c3ccccc3)CC2)sc(C)c1C [Compound Z56867786] | 11
COc1ccc(-n2cc(-c3ccccc3)c3c(NCCOCCO)ncnc32)cc1 [Compound Z57456127] | -8
COc1ccc(/C(O)=C2\C(=O)C(=O)N(CCN3CCNCC3)C2c2cccc(Oc3ccccc3)c2)cc1 (stereo not drawn) [Compound Z56865657] | 6

More lines, now with the values ahead:

First screening IR (inhibition rate) [%] | Structure (SMILES)
7 | O=C(C1CC1)N1CCCCCC1C1CCN(Cc2nnc(C3CC3)o2)CC1 (stereo not drawn) [Compound Z1170432033]
-2 | Cc1nc(NC(=O)c2cccc(NC(N)=O)c2)sc1SCC#N [Compound Z1000171966]
7 | COc1cc(CNC(=O)C2CCCN2C(C)=O)ccc1OCc1cccnc1 (stereo not drawn) [Compound Z396609184]
5 | CCOC(=O)COc1ccc(C2(C)NC(=O)c3cc(Cl)ccc3N2)cc1 (stereo not drawn) [Compound Z839958866]
6 | O=C(Nc1nccs1)C1CCCN(C(=O)c2[nH]ncc2Br)C1 (stereo not drawn) [Compound Z1177677805]
10 | CCCOc1ccc(C2/C(=C(\O)c3ccc(F)cc3)C(=O)C(=O)N2CCCn2ccnc2)cc1OC (stereo not drawn) [Compound Z316169876]
0 | Cn1nc(C2CCC2)cc1NC(=O)c1cc(Br)cnc1Cl [Compound Z1433129748]
2 | CC1CC(CNC(=O)c2ccc(O)cc2F)CN1Cc1ccccc1 (stereo not drawn) [Compound Z1735017324]
0 | O=S1(=O)CCN(S(=O)(=O)Cl)CC1 [Compound Z432047124]
-4 | CC(NCc1ccc(CN2CCN(C)CC2)cc1)c1cccc(CO)c1 (stereo not drawn) [Compound Z1532484795]
-15 | O=C(CN1CCN(C(=O)c2oc3ccccc3c2CSc2nccc(=O)[nH]2)CC1)N1CCCCC1 [Compound Z915764402]
-13 | Cc1c[nH]c(=O)n1-c1cccc(NC(=O)C2CC(=O)N(C)C2c2cccnc2)c1 (stereo not drawn) [Compound Z1204166998]
-9 | Cc1ccc([N+](=O)[O-])c(N2CCC(NCCO)CC2)c1 [Compound Z1576995201]
-5 | Cc1ccc(-n2ncc(C(=O)Nc3ccccc3F)c2C2CC2)cc1Cl [Compound Z363094390]
-5 | FC(F)(F)c1ccnc(Nc2ccc(N3CCCC3)nc2)n1 [Compound Z319012342]
4 | CCSc1cncc(N2CCC(C(=O)NC(C)C(C)C)CC2)n1 (stereo not drawn) [Compound Z1168201963]
-7 | Cn1ccnc1C(O)(CC(=O)Nc1ccc(Oc2ncccn2)cc1)C(F)(F)F (stereo not drawn) [Compound Z757638538]
-1 | COc1cccc(OCCN2CCN(c3cc(C)nc4c(-c5ccc(F)cc5)c(C(F)(F)F)nn34)CC2)c1 [Compound Z432102126]
2 | CN(C)c1ccc(Nc2nccc(C(F)(F)F)n2)cn1 [Compound Z319012738]
12 | O=C(CSc1ccc(S(=O)(=O)N2CCCC2)cn1)c1ccc2c(c1)OCO2 [Compound Z335869204]
12 | C/C(=C\C(=O)N1CCN(c2cnccn2)CC1)C12CC3CC(CC(C3)C1)C2 [Compound Z850748812]
